Assay results as given in patent US20260103474A1, “NOVEL COMPOUNDS FOR THE DIAGNOSIS OF TDP-43 PROTEINOPATHIES” (AC IMMUNE SA, priority 2022, published 2026).

Legend:
[1] = tested on: AD brain homogenates (containing Abeta and Tau); assay: Radiobinding assay (direct binding, Kd) on AD insoluble fraction of brain homogenates; design: species or system human; settings: saturation binding of tritiated compound
Method: Approximately 4 g of frozen tissue block from frontal cortex brain region was used from an AD donor with confirmed burden of Tau and Abeta aggregates. The tissue was homogenized in three volumes (1:3 w/v) of high salt buffer (50 mM Tris-HCl pH 7.5, 750 mM NaCl, 5 mM EDTA) supplemented with protease inhibitors (Complete; Roche 11697498001) at 4° C. with a glass Dounce homogenizer. The homogenate was transferred into polycarbonate centrifuge bottles (16×76 mm; Beckman 355603) and centrifuged at 100,000×g (38,000 RPM) in an ultracentrifuge (Beckman, XL100K) for 60 minutes at 4° C. using a pre-cooled 70.1 rotor (Beckman, 342184). Pellets were resuspended in high salt buffer supplemented with 1% Triton X-100 and homogenized at 4° C. with a syringe. The homogenates were centrifuged again at 100,000×g (38,000 RPM, 70.1 rotor) for 60 minutes at 4° C. Pellets were resuspended in high salt buffer supplemented with 1% Triton X-100 and 1 M sucrose and homogenized at 4° C. with a syringe. […]
The AD insoluble fraction was incubated with [^3H]Compound 1, [^3H]Compound 17 or [^3H]Abeta reference compound ([^3H]Abeta ref) at different concentrations. […] The filters were analyzed on a Microbeta scintillation counter (PerkinElmer). Specific binding was calculated by subtracting the non-specific signal from the total signal. […]

TDP-43 aggregates = TDP-43 aggregates (Homo sapiens, UniProt Q13148); assay: Micro-autoradiography staining in brain sections from patients with FTD; type: binding; design: from tissue; host or cells: frozen post-mortem human brain sections (FTLD-TDP type A and type B; non-demented controls in the classical autoradiography); settings: 120 nM
Method: All tissues were collected from donors for or from whom a written informed consent for a brain autopsy and the use of the material and clinical information for research purposes had been obtained by the respective brain banks. All samples were anonymized and coded. Frozen brain tissue blocks with confirmed TDP-43 pathology upon autopsy were processed using a cryotome to generate sections of 10 μm in thickness and mounted on glass slides. Sections were kept at −80° C. until use.
Brain sections were immunostained using a commercially available antibody, specific for phosphorylated serine at amino acid 409/410 (anti-pTDP-43 pS409/410, Biolegend, 829901). Sections were fixed for 15 minutes at 4° C. with 4% formaldehyde (Sigma, 252549) and washed three times for height minutes with 1×PBS (Dulbecco's phosphate buffered saline, Sigma D1408) at room temperature. Next, sections were saturated and permeabilized in blocking buffer (PBS, 10% normal goat serum (NGS), 0.25% Triton X-100) for one hour at room temperature and incubated overnight at 4° C. with primary antibody against pTDP-43 (diluted at 1/500 in PBS, 5% NGS, 0.25% Triton X-100). The following day, sections were washed three times for height minutes with 1×PBS before incubation with a secondary, AlexaFluor633-labeled goat-anti-rat antibody (Invitrogen, A-21094, diluted at 1/500 in PBS) for 45 minutes at room temperature. Following incubation with […] antibodies the sections were washed three times in PBS before being processed further.
For micro-autoradiography, tritiated test compound ([^3H]-Compound 1, [^3H]-Compound 9 or [^3H]-Compound 17 respectively) was incubated on the sections at 120 nM in 50 mM Tris buffer pH 7.4 for 45 minutes at room temperature. Sections were then washed as follows: once in ice-cold 50 mM Tris-HCl pH 7.4 buffer for one minute, twice in ice-cold 70% ethanol for one minute, once in ice-cold 50 mM Tris-HCl pH 7.4 buffer for one minute and finally rinsed briefly in ice-cold distilled water. Sections were subsequently dried for one hour under a stream of air and then exposed to Ilford Nuclear Emulsion Type K5 (Agar Scientific, AGP9281) for ten days at 4° C. in a light-proof slide storage box. The sections were developed by immersing them successively in the following solutions: 1.) Ilford Phenisol Developer (1:5 dilution in H2O, Agar Scientific, AGP9106) for four minutes, 2.) Ilfostop solution (1:20 dilution in H2O, Agar Scientific, AGP9104) for two minutes, 3.) Ilford Hypam Fixer (1:5 dilution in H2O, Agar Scientific, AGP9183) for four minutes and finally rinsed with H2O for 10 minutes.
For image acquisition, sections were mounted using ProLong Gold Antifade reagent (Invitrogen P36930) and imaged on a Panoramic250 Slide Scanner (3DHistech) with a 40× objective capturing brightfield and fluorescent images separately or on a Panoramic Scan II (3DHistech) with a 20× objective. The Visiopharm image analysis software suite was used to align the fluorescent image with the brightfield image.

TDP-43 aggregates, sequence (Q13148 whole entry): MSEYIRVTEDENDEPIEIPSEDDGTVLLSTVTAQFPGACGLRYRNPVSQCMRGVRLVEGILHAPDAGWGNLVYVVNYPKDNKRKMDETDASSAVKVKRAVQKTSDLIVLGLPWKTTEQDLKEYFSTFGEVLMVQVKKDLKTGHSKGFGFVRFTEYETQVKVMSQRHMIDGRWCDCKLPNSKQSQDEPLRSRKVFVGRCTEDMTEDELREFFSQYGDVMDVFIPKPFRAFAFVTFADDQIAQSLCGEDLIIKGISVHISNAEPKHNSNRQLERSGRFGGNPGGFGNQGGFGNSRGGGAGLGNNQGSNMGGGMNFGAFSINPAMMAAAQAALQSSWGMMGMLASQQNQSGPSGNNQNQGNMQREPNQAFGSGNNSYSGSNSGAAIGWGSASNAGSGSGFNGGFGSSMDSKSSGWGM

Row | SMILES | Direct binding in AD brain homogenates (containing Abeta and Tau) [1] | Micro-autoradiography silver grain signal versus pTDP-43 immunostaining (TDP-43 aggregates; FTLD-TDP type A brain sections) | Micro-autoradiography silver grain signal versus pTDP-43 immunostaining (TDP-43 aggregates; FTLD-TDP type B brain sections)
1 | [3H]c1cncc(N2CCc3nc(-c4cc([3H])c(N5CC[C@@H](F)C5)nc4F)sc3C2=O)c1 [[^3H]-Compound 1, tritiated 2-[2-fluoro-6-[(3R)-3-fluoropyrrolidin-1-yl]-3-pyridyl]-5-(3-pyridyl)-6,7-dihydrothiazolo[5,4-c]pyridin-4-one] | No significant binding | colocalization with pTDP-43 aggregates | same colocalization was observed
2 | [3H]C([3H])(O)C1CCN(c2ccc(-c3nc4c(s3)C(=O)N(c3cccnc3)CC4)c(F)n2)CC1 [[^3H]-Compound 17, 2-(2-fluoro-6-(4-(hydroxymethyl-t2)piperidin-1-yl)pyridin-3-yl)-5-(pyridin-3-yl)-6,7-dihydrothiazolo[5,4-c]pyridin-4(5H)-one] | No significant binding | colocalization with pTDP-43 aggregates | same colocalization was observed
